According to patent publication US11596649B2, “Composition in powder form comprising iron and probiotic bacteria” (NESTEC S.A., priority 2016, dated 2023):
Where two headings read alike, the source gives them in different places.

Tests used:
[1] = system: Lactobacillus rhamnosus (deposited as CGMCC 1.3724); details: 10 and 30 mg Fe2+ per 100 g maltodextrin model composition, FIG. 1
Method: (§1) The maltodextrin, the dried probiotic powder and the iron source were added together in a 500 mL plastic beaker and mixed for 5 minutes at 34 rpm using a Turbula® T2F dry mixer (WAB, Switzerland). An amount of 25 g of freshly mixed sample was diluted 1/10 in an aqueous tryptone salt solution supplemented with anti-foaming agent at 37° C. After 5 minutes of homogenization using a Masticator® (IUL, Spain), decimal dilutions were performed. The appropriate dilution resulting in 30-300 colonies after incubation was then transferred to a petri dish and mixed with MRS agar according to the pour plate method. Once solidified the plates were incubated at 37° C. under aerobic conditions. After 48 h of incubation the colonies present on the plates were counted.

[2] = system: Lactobacillus rhamnosus (deposited as CGMCC 1.3724); details: FIG. 4; for loss of live L. rhamnosus in the reconstituted compositions: 10 and 30 mg Fe2+ per 100 g infant formula powder (Nestogen 1)
Method: An amount of 25 g of freshly mixed sample was diluted 1/10 in an aqueous tryptone salt solution supplemented with anti-foaming agent at 37° C. After 5 minutes of homogenization using a Masticator® (IUL, Spain), decimal dilutions were performed. The appropriate dilution resulting in 30-300 colonies after incubation was then transferred to a petri dish and mixed with MRS agar according to the pour plate method. Once solidified the plates were incubated at 37° C. under aerobic conditions. After 48 h of incubation the colonies present on the plates were counted.

[3] = system: Lactobacillus paracasei (deposited as CNCM I-2116); assay: Survival of Lactobacillus paracasei on reconstitution, maltodextrin model composition (Example 3, plate count); assay type: cell-based; details: 5, 25 and 50 mg Fe2+ per 100 g maltodextrin model composition, FIG. 3
Method: as §1

[4] = system: Bifidobacterium longum (deposited as ATCC BAA-999); details: 5, 25 and 50 mg Fe2+ per 100 g maltodextrin model composition, FIG. 2
Method: The Samples were produced as follows. The maltodextrin, the dried probiotic powder and the iron source were added together in a 500 mL plastic beaker and mixed for 5 minutes at 34 rpm using a Turbula® T2F dry mixer (WAB, Switzerland). An amount of 25 g of freshly mixed sample was diluted 1/10 in an aqueous tryptone salt solution supplemented with anti-foaming agent at 37° C. After 5 minutes of homogenization using a Masticator® (IUL, Spain), decimal dilutions were performed. The appropriate dilution resulting in 30-300 colonies after incubation was then transferred to a petri dish and mixed with RCA agar according to the pour plate method. Once solidified the plates were incubated at 37° C. under anaerobic conditions. After 48 h of incubation the colonies present on the plates were counted.

[5] = system: Bifidobacterium longum (deposited as ATCC BAA-999); details: FIG. 5; for loss of live Bifidobacterium longum in the reconstituted compositions: 25 and 50 mg Fe2+ per 100 g infant formula powder (Nestogen 1)
Method: The Samples were produced as follows. The infant formula powder, the dried probiotic powder and the iron source were added together in a 500 mL plastic beaker and mixed for 5 minutes at 34 rpm using a Turbula® T2F dry mixer (WAB, Switzerland). An amount of 25 g of freshly mixed sample was diluted 1/10 in an aqueous tryptone salt solution supplemented with anti-foaming agent at 37° C. After 5 minutes of homogenization using a Masticator® (IUL, Spain), decimal dilutions were performed. The appropriate dilution resulting in 30-300 colonies after incubation was then transferred to a petri dish and mixed with RCA agar according to the pour plate method. Once solidified the plates were incubated at 37° C. under anaerobic conditions. After 48 h of incubation the colonies present on the plates were counted.

[6] = system: probiotic bacteria; assay: Viability of probiotic bacteria with added iron source (general finding); assay type: cell-based; details: iron source in powder composition with probiotic bacteria, at reconstitution
[7] = in rat; Hurrell, Iron Fortification of Foods, 1985; cited from earlier work
[8] = in human; Hurrell, Iron Fortification of Foods, 1985; cited from earlier work

Row | Compound | loss of live L. rhamnosus in the reconstituted compositions [1] | loss of viable Lactobacillus rhamnosus compared with dissolved ferrous sulphate in spray-dried form ([1]; both iron concentrations) | loss of viable Lactobacillus rhamnosus compared with dissolved ferrous sulphate in spray-dried form ([2]; 10 and 30 mg Fe2+ per 100 g infant formula composition, both iron concentrations) | loss of live L. rhamnosus in the reconstituted compositions [2] | loss of live Lactobacillus paracasei in the reconstituted compositions [3] | loss of viable Lactobacillus paracasei compared with dissolved ferrous sulphate in spray-dried form ([3]; all iron concentrations) | loss of live Bifidobacterium longum in the reconstituted compositions [4] | loss of viable Bifidobacterium longum compared with dissolved ferrous sulphate in spray-dried form ([4]; all iron concentrations) | loss of viable Bifidobacterium longum compared with dissolved ferrous sulphate in spray-dried form ([5]; 25 and 50 mg Fe2+ per 100 g infant formula composition, all iron concentrations) | loss of live Bifidobacterium longum in the reconstituted compositions [5] | loss of viability of probiotic bacteria [6] | bioavailability [7] | average bioavailability [8]
1 | O.O=S(=O)([O-])[O-].[Fe+2] [ferrous sulphate monohydrate] | no significant loss | significantly lower | significantly lower | no significant loss | no significant loss | significantly lower | no significant loss | significantly lower | significantly lower | no significant loss | no significant loss | – | –
2 | ferric citrate | – | – | – | – | – | – | – | – | – | – | do not significantly impair | 75% | 31%
3 | O=C([O-])CC(O)(CC(=O)O)C(=O)[O-].[Fe+2] [ferrous citrate] | – | – | – | – | – | – | – | – | – | – | do not significantly impair | – | 74%
4 | O.O.O.O.O.O.O.O=S(=O)([O-])[O-].[Fe+2] [ferrous sulphate heptahydrate, reference compound] | significant loss | – | – | significant loss | – | – | significant loss | – | – | significant loss | significant loss | – | –
